{"source": "patent US20140256663A1", "about": "“Amphotericin Analogous Compounds and Pharmaceutical Compositions Containing Them” (CENTRO DE INVESTIGACION Y DE ESTUDIOS AVANZADOS DEL …, priority 2010, published 2014)", "key": {"[1]": {"assay": "Unit channel studies in chicken egg lecithin bilayers with cholesterol", "procedure": "The activity is determined by the presence of the different channels formed by polyenes in the lipid bilayer (Cotero, et al., supra; Venegas, et al., supra). […] These values were determined by the technique of unit channel delineated above.\nUnit channel studies were performed according to procedures described earlier (Cotero, et al., supra, Venegas, et al., supra). Required liposomal suspensions were prepared using lecithin with cholesterol or ergosterol. These suspensions were placed in an ultrasonic bath for 15 minutes to produce unilamellar vesicles. Subsequently, the suspension was placed in a 100 μl eppendorf and a lipid bilayer was formed on the tip of a micro-electrode. The unit channels of amphotericin and of the invented compounds were incorporated to this bilayer. The unit channel current of the various compounds was recorded with an electrometer, and then these records were analyzed by determining the activity of the compounds and the characteristics of the channels formed.\nThe activity is determined by the presence of the various channels formed by polyenes in the lipid bilayer (Cotero, et al., supra, Venegas, et al., supra). […] This conductance is the effect of all the channels present and was determined by the unit channel technique earlier described."}, "[2]": {"system": "Candida albicans ATCC 10231", "assay": "Antifungal activity in vitro by flow cytometry, Candida albicans ATCC 10231", "assay_type": "cell-based"}, "[3]": {"system": "Candida kruzei", "assay": "Antifungal activity in vitro by flow cytometry, Candida kruzei", "assay_type": "cell-based", "settings": "read-out: CF50 Candida kruzei", "procedure": "(§1) The antifungal activity of the polyene macrolide derivate of the present invention was determined by flow cytometry method earlier described (Pinto et al., J. Medical Microbiology, 2009; 58, 1454-1462; Pina-Vaz and Rodriguez, Methods Mol. Biol. 2010; 638:281-289). For the test two strains of Candida albicans (ATCC 10231 and 752) and Candida kruzei were used. A cellular suspension of 1×10^6 UFC/mL was used, which has sown in 96-well plates. […] As controls were used: untreated yeasts (control of living cells), yeasts exposed to UV radiation (arrest, inhibition of proliferation), and yeasts exposed at temperature of 100° C. (dead yeasts). Cells were collected by centrifugation at 10,000×g for 10 min, they were washed once in phosphate buffer. […] of propidium iodide 0.1 mg/mL were added to the cell suspension. It was incubated during 30 minutes at room temperature and protected from light. Finally, the samples were analyzed by flow cytometry (Becton-Dickinson Facsc Calibur, laser argon 480 nm). The intrinsic parameters and fluorescence in the FL2 channel (yellow/orange fluorescence) for FUN and channel FL3 (red fluorescence, filter 630 nm) for propidium iodide were acquired and registered on a logarithmic scale for a minimum of 7500 events per sample. For data analysis, the quadrants were adjusted in a plot of data lines of fluorescence intensity of samples. […] These quadrants were used to quantify the percentile of cells showing altered fluorescence compared to drug-free controls."}, "[4]": {"system": "human erythrocytes", "assay": "Hemolytic assay on human erythrocytes", "assay_type": "cell-based", "settings": "1 hour", "procedure": "The hemotoxicity of the polyene macrolide derivative of the present invention was determined by measuring the toxicity to human erythrocytes (values HE50) using a method established by Cybulska, et al. (Cybulska, B., Borowski, E. and Gary-Bobo, M. Relationship between ionophoric and hemolytic activities of perimycin A and vacidin A, two polyene macrolide antifungal antibiotics. Biochem Pharmacol. 1989; 38(11): 1755-1762). For determining the haematoxicity 2 mL blood were obtained and placed in a tube with EDTA. The number of erythrocytes was counted in a Neubauer chamber, and 1×10^7 cells/mL were placed in test tubes. The erythrocytes were resuspended in 450 μL of KCl 150 mM+Tris 3 mM buffer. The erythrocytes were treated with concentrations of 0.01, 0.1, 1, 10 y 100 μM and incubated in a water bath for 1 hour. They were then centrifuged at 1500 rpm for 15 seconds; 150 μL were taken from the supernatant and placed in 96-well plates; the optical density of each group was measured using a plate reader at a wavelength of 550 nm. We included one tube with the drug solvent (DMSO 1%) as internal control. We also included one tube only with erythrocytes and 500 μl of buffer KCl 150 mM+Tris 3 mM, which we consider as a negative control group and a tube with 500 μl of red cells and 35 mM NaCl (positive control)."}, "[5]": {"system": "Candida albicans ATCC 752", "assay": "Antifungal activity in vitro by flow cytometry, Candida albicans ATCC 752", "assay_type": "cell-based", "settings": "read-out: CF50 Candida albicans ATCC 752", "procedure": "as §1"}, "[6]": {"settings": "200 μM compound, 30 mol % cholesterol, 27° C."}}, "note": "Where two headings read alike, the source gives them in different places.", "data": [{"compound": "C[C@@H]1[C@H](O)[C@@H](C)/C=C/C=C/C=C/C=C/C=C/C=C/C=C/[C@H](O[C@@H]2O[C@H](C)[C@@H](O)[C@H](N)[C@@H]2O)C[C@@H]2O[C@](O)(C[C@@H](O)C[C@@H](O)[C@H](O)CC[C@@H](O)C[C@@H](O)CC(=O)O[C@H]1C)C[C@H](O)[C@H]2C(=O)O", "note": "[AmB, Amphotericin B]", "values": [{"measurement": "Average conductance cholesterol", "setting": "[1]; AmB 6 μM, 30° C.", "value": "26.6 ± 9.9", "unit": "fS"}, {"measurement": "MIC50", "setting": "[2]; ATCC10231, Compounds of the present invention", "value": 0.2, "unit": "µg/mL"}, {"measurement": "IC50", "setting": "[3]; 24 h at 37° C.", "value": "> 10", "unit": "µM"}, {"measurement": "HE50 (Hemolysis 50)", "setting": "[4]", "value": 7, "unit": "µM"}, {"measurement": "IC50", "setting": "[5]; ATCC752, 24 h at 37° C.", "value": 1, "unit": "µM"}]}, {"compound": "COC(=O)[C@@H](Cc1c[nH]c2ccccc12)NC(=O)[C@@H]1C(O)C[C@@]2(O)C[C@@H](O)C[C@@H](O)[C@H](O)CC[C@@H](O)C[C@@H](O)CC(=O)OC(C)C(C)[C@H](O)C(C)/C=C/C=C/C=C/C=C/C=C/C=C/C=C/[C@H](OC3OC(C)C(O)C(N)C3O)CC1O2", "note": "(stereo partly shown) [A-7, N-(D)-tryptophanamide of AmB]", "values": [{"measurement": "Opening probability, channel type I", "setting": "[1]; [6]", "value": 14, "unit": "%"}, {"measurement": "Opening probability, channel type II", "setting": "[1]; [6]", "value": 7, "unit": "%"}, {"measurement": "Opening probability, channel type III", "setting": "[1]; [6]", "value": "<1", "unit": "%"}, {"measurement": "Opening probability, channel type IV", "setting": "[1]; [6]", "value": "<1", "unit": "%"}, {"measurement": "Opening probability, channel type V", "setting": "[1]; [6]", "value": "<1", "unit": "%"}, {"measurement": "Opening probability, channel type VI", "setting": "[1]; [6]", "value": "N.O."}, {"measurement": "activity of transmembranal channels in the cholesterol membrane", "setting": "[1]; in words, compared to AmB", "value": "more reduced activity of transmembranal channels"}, {"measurement": "IC50", "setting": "[2]; ATCC10231, 24 h, read-out: CF50 Candida albicans ATCC 10231", "value": 1500, "unit": "nM"}, {"measurement": "IC50", "setting": "[3]; 24 h", "value": "> 10", "unit": "µM"}, {"measurement": "HE50 (Hemolysis 50)", "setting": "[4]", "value": 80, "unit": "µM"}, {"measurement": "IC50", "setting": "[5]; ATCC752, 24 h", "value": 8.2, "unit": "µM"}]}]}
